Experiments:
[1] = tested on: M. canis; assay: In vitro anti-microbial activity (minimum inhibitory concentration) against M. canis; format: cell-based
Procedure: (§1) For example, the anti-microbial activity of calcium myxin dihydrate, prepared by the method of this invention, is evaluated and compared to that of myxin itself both in vivo against 4 strains of bacteria and in vitro against yeast and fungus infections.

[2] = tested on: P. aeruginosa; assay: In vivo anti-microbial activity against P. aeruginosa
Procedure: as §1

[3] = tested on: C. albicans; assay: In vitro anti-microbial activity (minimum inhibitory concentration) against C. albicans; format: cell-based
Procedure: as §1

[4] = tested on: S. aureus; assay: In vivo anti-microbial activity against S. aureus
Procedure: as §1

[5] = tested on: S. agalactiae; assay: In vivo anti-microbial activity against S. agalactiae
Procedure: as §1

[6] = tested on: E. coli; assay: In vivo anti-microbial activity against E. coli
Procedure: as §1

[7] = Solubility in water; format: physicochemical
[8] = tested on: gram positive and gram negative bacteria, fungi, protozoa and helminths; assay: Anti-microbial activity in in vitro tests and in vivo topical infections (general statement)

| Compound | Minimum Inhibitory Concentration, cidal ([1]; cidal) | Minimum Inhibitory Concentration, static ([1]; static) | ED50' (in vivo) [2] | Minimum Inhibitory Concentration, cidal ([3]; cidal) | Minimum Inhibitory Concentration, static ([3]; static) | ED50' (in vivo) [4] | ED50' (in vivo) [5] | ED50' (in vivo) [6] | solubility in water [7] | anti-microbial activity [8] |
| --- | --- | --- | --- | --- | --- | --- | --- | --- | --- | --- |
| 6-methoxy-1-phenazinol 5,10-dioxide, calcium dihydrate complex [Calcium Myxin Dihydrate] | < 0.8 µg/mL | < 0.8 µg/mL | 20 µg/mL | < 0.8 µg/mL | < 0.8 µg/mL | < 20 µg/mL | < 4 µg/mL | 60 µg/mL | – | – |
| COc1cccc2c1[n+]([O-])c1cccc(O)c1[n+]2[O-] [Myxin, 6-methoxy-1-phenazinol 5,10-dioxide] | – | – | – | – | – | – | – | – | very slightly soluble in water | high degree and wide spectrum of anti-microbial activity |

Reference: patent US3966734A, “Method for the purification of 6-methoxy-1-phenazinol 5,10-dioxide” (Hoffmann-La Roche Inc., priority 1975, dated 1976)
